{
  "source": "patent US5605929A",
  "about": "“Methods and compositions for inhibiting 5α-reductase activity” (priority 1995, dated 1997)",
  "key": {"[1]": {"test_system": "prostate and preputial organ", "assay": "Catechins ip 7 days, large rats", "type": "in vivo, rat", "experimental": "Male Sprague Dawley rats, 172±20 g body weight, were used. Each group had 5 rats. […] The control rats received 0.3 ml of 30% ethanol."}, "[2]": {"test_system": "male accessory reproductive organs and preputial organs", "assay": "EGCG ip 7 days, male rats, body and organ weights", "type": "in vivo, rat", "experimental": "(§1) Male Sprague-Dawley rats (body weight 180 g±10 g) were used. Each group had 5 rats. […] Rats in the control group received 0.1 ml 30% ethanol."}, "[3]": {"assay": "EGCG ip 7 days, male rats, body and organ weights", "type": "in vivo, rat", "details": "based on the increase in the weight", "experimental": "as §1"}, "[4]": {"test_system": "type 1 5α-reductase", "type": "biochemical", "experimental": "[^3 H]4-MA binding assay were described in detail previously (Liang and Liao, 1992; Liang et al., 1983). […] The reaction was started by the addition of 25 μl of microsomes (25 μg protein). After 30-60 min incubation at 0° C., the [^3 H]4-MA bound to microsomes was collected on a Whatman GF/F glass fiber, washed and radioactivity determined (Liang and Liao, 1992).\nThe reaction was started by the addition of 25 μl of microsomes (25 μg protein). The mixture was incubated at 37° for 30-60 min and stopped by addition of 0.5 ml of ethyl acetate and mixing for 1 min. The organic solvent extract was removed under vacuum."}, "[5]": {"test_system": "5α-reductase in liver and prostate", "details": "cited from earlier work"}, "[6]": {"test_system": "hamster flank organ", "assay": "Flank organ, castrated immature male hamsters, topical treatment", "type": "in vivo, Syrian golden hamster", "details": "for change of pigmented macule vs T alone: Table 4, T + 1 mg fatty acid", "how_it_was_run": "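Castrated immature male hamsters (5 per group) received 5 μl once daily on the right flank organ of ethanol vehicle, androgen (T or 5α-DHT), fatty acid, or androgen plus fatty acid. The left organ was left untreated. Pigmented macule and sebaceous gland growth were assessed with caliper long and short axes, as mean ± SD.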"}, "[7]": {"test_system": "flank organs, seminal vesicles, prostate and other organs"}, "[8]": {"molecular_target": "T1, microsomal 5α-reductase (Rattus norvegicus, UniProt P24008)", "T1 construct": "from the livers of adult Sprague-Dawley female rats; from tissue; host or cells: liver microsomes of adult female Sprague-Dawley rats", "T1 sequence (P24008 1-259)": "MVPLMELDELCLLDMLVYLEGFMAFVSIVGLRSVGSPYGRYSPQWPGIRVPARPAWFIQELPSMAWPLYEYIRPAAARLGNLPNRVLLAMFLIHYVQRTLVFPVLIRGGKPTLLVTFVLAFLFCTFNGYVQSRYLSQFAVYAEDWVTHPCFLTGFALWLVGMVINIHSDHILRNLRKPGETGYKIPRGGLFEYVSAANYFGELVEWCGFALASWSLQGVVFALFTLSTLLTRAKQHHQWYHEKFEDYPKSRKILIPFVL", "assay": "Enzymatic assay of microsomal 5α-reductase (testosterone to 5α-DHT)", "type": "biochemical", "method": "Microsomes were prepared at 4° C. from a buffered 0.32M-sucrose homogenate of human liver and from the livers of adult Sprague-Dawley female rats by differential centrifugation as described previously (Liang et al., 1990), and were used in the assay of 5α-reductase activity. In some experiments, microsomes were solubilized with 0.1% polyoxyethylene ether W-1 as described previously (Liang et al., 1990), except for the substitution of polyoxyethylene ether W-1 for Lubrol-WX."}, "[9]": {"details": "based on the increase in the weight"}},
  "note": "Where two headings read alike, the source gives them in different places.",
  "data": [
    {"smiles": "O=C(O[C@@H]1Cc2c(O)cc(O)cc2O[C@@H]1c1cc(O)c(O)c(O)c1)c1cc(O)c(O)c(O)c1", "note": "[EGCG, (-)Epigallocatechin-3-gallate]", "values": [
      {"measurement": "body weight decrease", "setting": "[1]; 15 mg ip/day, 7 days", "value": "about 15%"},
      {"measurement": "coagulating gland weight", "setting": "[1]; 15 mg ip/day, 7 days", "value": "34 % of organ weight in normal rats"},
      {"measurement": "dorsolateral prostate weight", "setting": "[1]; 15 mg ip/day, 7 days", "value": "46 % of organ weight in normal rats"},
      {"measurement": "kidney weight", "setting": "[1]; 15 mg ip/day, 7 days", "value": "74 % of organ weight in normal rats"},
      {"measurement": "preputial gland weight", "setting": "[1]; 15 mg ip/day, 7 days", "value": "35 % of organ weight in normal rats"},
      {"measurement": "seminal vesicle weight", "setting": "[1]; 15 mg ip/day, 7 days", "value": "41 % of organ weight in normal rats"},
      {"measurement": "testis weight", "setting": "[1]; 15 mg ip/day, 7 days", "value": "84 % of organ weight in normal rats"},
      {"measurement": "ventral prostate weight", "setting": "[1]; 15 mg ip/day, 7 days", "value": "46 % of organ weight in normal rats"},
      {"measurement": "final body weight", "setting": "[1]; 15 mg ip/day, 7 days, normal 232±10 g", "value": "147 ± 14", "unit": "g"},
      {"measurement": "final body weight reduction vs normal rats", "setting": "[1]; end of study", "value": "about 36%"},
      {"measurement": "final body weight", "setting": "[2]; 15 mg/day, 7 days, control 238.2 ± 10.6", "value": "191.8 ± 12.0", "unit": "g"},
      {"measurement": "Coagulating gland", "setting": "[2]; 15 mg/day, control 78.0 ± 5.9", "value": "45.5 ± 11.7", "unit": "mg"},
      {"measurement": "Preputial gland", "setting": "[2]; 15 mg/day, control 126.8 ± 24.8", "value": "76.1 ± 33.1", "unit": "mg"},
      {"measurement": "Ventral prostate", "setting": "[2]; 15 mg/day, control 201.9 ± 36.2", "value": "142.2 ± 10.7", "unit": "mg"},
      {"measurement": "Seminal Vesicle", "setting": "[2]; 15 mg/day, control 234.3 ± 11.7", "value": "164.9 ± 30.4", "unit": "mg"},
      {"measurement": "Coagulating gland, % of Control, Final", "setting": "[2]; based on the full weight", "value": "58.3 % of Control"},
      {"measurement": "Final body weight, % of Control, Final", "setting": "[2]; based on the full weight", "value": "80.5 % of Control"},
      {"measurement": "Preputial gland, % of Control, Final", "setting": "[2]; based on the full weight", "value": "60.0 % of Control"},
      {"measurement": "Seminal Vesicle, % of Control, Final", "setting": "[2]; based on the full weight", "value": "70.4 % of Control"},
      {"measurement": "Ventral prostate, % of Control, Final", "setting": "[2]; based on the full weight", "value": "70.4 % of Control"},
      {"measurement": "Coagulating gland, % of Control, Increase", "setting": "[2]; [9]", "value": "39.8 % of Control"},
      {"measurement": "Seminal Vesicle, % of Control, Increase", "setting": "[2]; [9]", "value": "52.3 % of Control"},
      {"measurement": "Ventral prostate, % of Control, Increase", "setting": "[2]; [9]", "value": "62.0 % of Control"},
      {"measurement": "Body weight, % of Control, Increase", "setting": "[3]", "value": "20.3 % of Control"},
      {"measurement": "competition with testosterone or NADPH", "setting": "[4]", "value": "did not appear to compete with testosterone or NADPH"}
    ]},
    {"smiles": "CCCCC/C=C\\C/C=C\\C/C=C\\CCCCC(=O)O", "note": "[γ-Linolenic acid, γ-linolenic acid]", "values": [
      {"measurement": "inhibition of 5α-reductase activity in liver and prostate", "setting": "[5]", "value": "inhibit 5α-reductase activity in both the liver and prostate"},
      {"measurement": "inhibition of 5α-DHT-induced growth of pigmented macule", "setting": "[6]; 0.2 to 1 mg", "value": "no statistically significant inhibition"},
      {"measurement": "effective dosage", "setting": "[6]; T-stimulated pigmented macule, per flank organ/day", "value": "≥ 0.2", "unit": "mg"},
      {"measurement": "Pigmented Macule, Untreated (L)", "setting": "[6]; Table 4, 1 mg fatty acid alone, 18 days", "value": "4.2 ± 0.6", "unit": "mm^2"},
      {"measurement": "Pigmented Macule, Untreated (L)", "setting": "[6]; Table 4, T 0.5 μg + 1 mg fatty acid", "value": "4.1 ± 0.3", "unit": "mm^2"},
      {"measurement": "change of pigmented macule vs T alone", "setting": "[6]; listed as LA", "value": -53, "unit": "%"},
      {"measurement": "change of pigmented macule vs T alone", "setting": "[6]; listed as γ-LA", "value": 53, "unit": "%"},
      {"measurement": "Percent Inhibition", "setting": "[6]; Table 5, T 0.5 μg + fatty acid 1 mg, 21 days", "value": 66, "unit": "%"},
      {"measurement": "Pigmented macule Right (+T)", "setting": "[6]; Table 5, T 0.5 μg + fatty acid 1 mg, 21 days, T alone 49.6 ± 8.3", "value": "17.0 ± 6.4", "unit": "mm^2"},
      {"measurement": "Pigmented macule Left", "setting": "[6]; Table 5, fatty acid 1 mg without T, 21 days", "value": "4.4 ± 1.6", "unit": "mm^2"},
      {"measurement": "Pigment Macule change", "setting": "[6]; Table 6, T + LA 0.2 mg", "value": -31, "unit": "%"},
      {"measurement": "Sebaceous Gland change", "setting": "[6]; Table 6, T + LA 0.2 mg", "value": -30, "unit": "%"},
      {"measurement": "Pigment Macule change", "setting": "[6]; Table 6, T + LA 0.4 mg", "value": -24, "unit": "%"},
      {"measurement": "Pigment Macule change", "setting": "[6]; Table 6, T + LA 0.6 mg", "value": -45, "unit": "%"},
      {"measurement": "Sebaceous Gland change", "setting": "[6]; Table 6, T + LA 0.6 mg", "value": -51, "unit": "%"},
      {"measurement": "Pigment Macule change", "setting": "[6]; Table 6, T + LA 0.8 mg", "value": -32, "unit": "%"},
      {"measurement": "Sebaceous Gland change", "setting": "[6]; Table 6, T + LA 0.8 mg", "value": -25, "unit": "%"},
      {"measurement": "Pigment Macule change", "setting": "[6]; Table 6, T + LA 1.0 mg", "value": -34, "unit": "%"},
      {"measurement": "Sebaceous Gland change", "setting": "[6]; Table 6, T + LA 1.0 mg", "value": -55, "unit": "%"},
      {"measurement": "maximum inhibition", "setting": "[6]; daily dose of 1 to 2 mg γ-LA", "value": "50 to 66", "unit": "%"},
      {"measurement": "effect on sebaceous gland growth stimulated by 5α-DHT", "setting": "[6]; hamster, in vivo", "value": "did not significantly affect"},
      {"measurement": "maximal inhibition", "setting": "[6]; reached by 1 mg, T-stimulated pigmented macule", "value": 50, "unit": "%"},
      {"measurement": "left flank organ area", "setting": "[7]; after injections, control 12.9±2.2", "value": "9.9±2.4"},
      {"measurement": "right flank organ area", "setting": "[7]; after injections, control 14.6±1.5", "value": "9.8±2.5", "unit": "mm^2"},
      {"measurement": "adrenal weight", "setting": "[7]; control 0.022±0.004 g", "value": "0.021 ± 0.004", "unit": "g"},
      {"measurement": "seminal vesicles and prostate weight", "setting": "[7]; control 0.156±0.026 g", "value": "0.106 ± 0.022", "unit": "g"},
      {"measurement": "spleen weight", "setting": "[7]; control 0.157±0.027", "value": "0.1867±0.048"},
      {"measurement": "kidney weight", "setting": "[7]; control 1.060±0.086 g", "value": "1.121 ± 0.073", "unit": "g"},
      {"measurement": "competition with testosterone or NADPH", "setting": "[8]", "value": "did not appear to compete with testosterone or NADPH"},
      {"measurement": "Km", "setting": "[8]; 5 μM γ-LA, 2.0 without, read-out: apparent Km value for NADPH", "value": 3.1, "unit": "µM"},
      {"measurement": "Vmax", "setting": "[8]; 5 μM γ-LA, 7.5 without", "value": "2.8 pmol 5α-DHT formed/mg protein/15 min"},
      {"measurement": "Km", "setting": "[8]; read-out: apparent Km value for testosterone, 5 μM γ-LA, 2.4 without", "value": 4.5, "unit": "µM"}
    ]}
  ]
}
